Our source for the Dmax and DC50 values is US12539292B2, “BRM targeting compounds and associated methods of use” (Arvinas Operations, Inc., priority 2018, dated 2026).

The target of the experiment is T1, BRM (Homo sapiens, UniProt P51531).
T1 construct: In-Cell Western Screen of BRM Degradation in SW1573 Cells; endogenous in cells; host or cells: SW1573
Kind of experiment: In-cell Western screen of BRM degradation in SW1573 cells (Dmax and DC50). The format is cell-based. The note with it: for Dmax: SW1573, % degraded, when tested at the top concentration of between 0.3 and 10 μM, read-out: BRM Dmax (%); for DC50: degradation of BRM, read-out: BRM DC50. Summed up:
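After adhering overnight, cells received compound for 18-20 hours. They were then washed in cold DPBS, fixed with 4% PFA for 20 min and permeabilized for 30 min. Blocking and fluorescent secondary staining followed before imaging.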

T1 sequence (P51531 whole entry): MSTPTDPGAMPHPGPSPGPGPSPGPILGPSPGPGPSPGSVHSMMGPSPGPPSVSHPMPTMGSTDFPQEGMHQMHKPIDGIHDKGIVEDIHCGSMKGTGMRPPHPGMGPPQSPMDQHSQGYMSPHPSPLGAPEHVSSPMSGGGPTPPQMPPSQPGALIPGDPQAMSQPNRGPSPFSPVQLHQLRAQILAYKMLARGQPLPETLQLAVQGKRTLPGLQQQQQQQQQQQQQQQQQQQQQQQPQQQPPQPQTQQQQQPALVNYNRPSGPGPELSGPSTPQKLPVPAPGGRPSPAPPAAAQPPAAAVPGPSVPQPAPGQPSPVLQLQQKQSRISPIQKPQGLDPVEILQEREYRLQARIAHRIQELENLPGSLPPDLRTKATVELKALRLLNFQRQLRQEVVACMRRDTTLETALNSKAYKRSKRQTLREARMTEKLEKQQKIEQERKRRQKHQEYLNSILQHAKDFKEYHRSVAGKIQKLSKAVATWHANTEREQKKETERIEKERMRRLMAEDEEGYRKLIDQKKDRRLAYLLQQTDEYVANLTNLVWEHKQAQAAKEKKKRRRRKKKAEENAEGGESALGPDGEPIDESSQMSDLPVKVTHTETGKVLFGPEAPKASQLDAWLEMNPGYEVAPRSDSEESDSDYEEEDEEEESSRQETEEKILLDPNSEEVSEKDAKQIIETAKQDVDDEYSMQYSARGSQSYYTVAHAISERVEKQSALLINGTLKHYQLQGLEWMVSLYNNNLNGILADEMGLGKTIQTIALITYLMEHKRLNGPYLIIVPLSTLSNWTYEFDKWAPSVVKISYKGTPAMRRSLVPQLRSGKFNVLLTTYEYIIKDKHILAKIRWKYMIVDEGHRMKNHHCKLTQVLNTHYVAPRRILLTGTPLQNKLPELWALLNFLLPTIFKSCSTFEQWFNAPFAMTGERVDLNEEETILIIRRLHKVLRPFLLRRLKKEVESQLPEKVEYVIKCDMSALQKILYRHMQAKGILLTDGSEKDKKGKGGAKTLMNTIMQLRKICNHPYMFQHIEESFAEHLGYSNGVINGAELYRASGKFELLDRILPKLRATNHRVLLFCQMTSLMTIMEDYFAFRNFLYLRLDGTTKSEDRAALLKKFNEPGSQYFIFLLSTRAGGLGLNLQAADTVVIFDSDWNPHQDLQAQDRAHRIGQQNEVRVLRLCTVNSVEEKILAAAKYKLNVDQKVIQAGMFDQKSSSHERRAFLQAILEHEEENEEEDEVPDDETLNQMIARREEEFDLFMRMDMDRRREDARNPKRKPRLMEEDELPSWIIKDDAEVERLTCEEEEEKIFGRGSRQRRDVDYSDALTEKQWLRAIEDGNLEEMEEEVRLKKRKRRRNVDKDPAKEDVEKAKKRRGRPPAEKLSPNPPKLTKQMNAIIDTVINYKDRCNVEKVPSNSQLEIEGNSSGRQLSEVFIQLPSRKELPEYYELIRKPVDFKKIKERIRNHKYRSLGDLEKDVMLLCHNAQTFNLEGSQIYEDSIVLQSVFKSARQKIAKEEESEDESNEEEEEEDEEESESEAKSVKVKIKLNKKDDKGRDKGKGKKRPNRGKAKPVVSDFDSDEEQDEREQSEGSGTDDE

In general, Dmax refers to the largest share of the target that was removed. For orientation: DC50 means the concentration at which degradation of the target reaches its halfway point. Regarding `Cc1nccn1-c1ccc([C@H](C)NC(=O)[C@@H]2C[C@@H](O)CN2C(=O)[C@@H](c2cc(N3CCN(CCN4CCC(O[C@H]5C[C@H](Oc6cc(N7C8CCC7CN(c7cc(-c9ccccc9O)nnc7N)C8)ccn6)C5)CC4)CC3)no2)C(C)C)cc1` [compound 413, (2S,4R)-1-((2R)-2-(3-(4-(2-(4-((1r,3r)-3-((4-(3-(3-amino-6-(2-hydroxyphenyl)pyridazin-4-yl)-3,8-diazabicyclo[3.2.1]octan-8-yl)pyridin-2-yl)oxy)cyclobutoxy)piperidin-1-yl)ethyl)piperazin-1-yl)isoxazol-5-yl)-3-methylbutanoyl)-4-hydroxy-N-((S)-1-(4-(2-methyl-1H-imidazol-1-yl)phenyl)ethyl)pyrrolidine-2-carboxamide], the greatest degradation seen (Dmax) is greater than 75% and the half-maximal degradation concentration (DC50) is less than 2.5 nM.
On to `Cc1ncsc1-c1ccc([C@H](C)NC(=O)[C@@H]2C[C@@H](O)CN2C(=O)[C@@H](c2cc(OCCN3CCC(O[C@H]4C[C@H](C#C[C@@H](C)n5cc(-c6cc(-c7ccccc7O)nnc6N)cn5)C4)CC3)no2)C(C)C)cc1` [compound 414, (2S,4R)-1-((R)-2-(3-(2-(4-((1R,3R)-3-((R)-3-(4-(3-amino-6-(2-hydroxyphenyl)pyridazin-4-yl)-1 H-pyrazol-1-yl)but-1-yn-1-yl)cyclobutoxy)piperidin-1-yl)ethoxy)isoxazol-5-yl)-3-methylbutanoyl)-4-hydroxy-N-((S)-1-(4-(4-methylthiazol-5-yl)phenyl)ethyl)pyrrolidine-2-carboxamide], for which the Dmax was greater than 75% and the DC50 was less than 2.5 nM.
Regarding `Cc1ncsc1-c1ccc([C@H](C)NC(=O)[C@@H]2C[C@@H](O)CN2C(=O)[C@@H](c2cc(OCCN3CCC(O[C@H]4C[C@H](C#C[C@H](C)n5cc(-c6cc(-c7ccccc7O)nnc6N)cn5)C4)CC3)no2)C(C)C)cc1` [compound 415, (2S,4R)-1-((R)-2-(3-(2-(4-((1S,3R)-3-((S)-3-(4-(3-amino-6-(2-hydroxyphenyl)pyridazin-4-yl)-1H-pyrazol-1-yl)but-1-yn-1-yl)cyclobutoxy)piperidin-1-yl)ethoxy)isoxazol-5-yl)-3-methylbutanoyl)-4-hydroxy-N-((S)-1-(4-(4-methylthiazol-5-yl)phenyl)ethyl)pyrrolidine-2-carboxamide], the maximal degradation (Dmax) was greater than 75% and the DC50 was less than 2.5 nM.
Taken in the same sequence, the figures for `CC(C)[C@@H](C(=O)N1C[C@H](O)C[C@H]1C(=O)N[C@@H](C)c1ccc(-c2scnc2N)cc1)c1cc(OCCN2CCC(O[C@H]3C[C@H](Oc4cc(N5C6CCC5CN(c5cc(-c7ccccc7O)nnc5N)C6)ccn4)C3)CC2)no1` [compound 416, (2S,4R)-1-((2R)-2-(3-(2-(4-((1r,3R)-3-((4-(3-(3-amino-6-(2-hydroxyphenyl)pyridazin-4-yl)-3,8-diazabicyclo[3.2.1]octan-8-yl)pyridin-2-yl)oxy)cyclobutoxy)piperidin-1-yl)ethoxy)isoxazol-5-yl)-3-methylbutanoyl)-N-((S)-1-(4-(4-aminothiazol-5-yl)phenyl)ethyl)-4-hydroxypyrrolidine-2-carboxamide] were greater than 75% and less than 2.5 nM.
With `Cc1ncsc1-c1ccc([C@H](C)NC(=O)[C@@H]2C[C@@H](O)CN2C(=O)[C@@H](c2cc(OCCC3CCN(C[C@H]4C[C@H](Oc5cc(N6C7CCC6CN(c6cc(-c8ccccc8O)nnc6N)C7)ccn5)C4)CC3)no2)C(C)C)cc1` [compound 417, (2S,4R)-1-((2R)-2-(3-(2-(1-(((1r,3R)-3-((4-(3-(3-amino-6-(2-hydroxyphenyl)pyridazin-4-yl)-3,8-diazabicyclo[3.2.1]octan-8-yl)pyridin-2-yl)oxy)cyclobutyl)methyl)piperidin-4-yl)ethoxy)isoxazol-5-yl)-3-methylbutanoyl)-4-hydroxy-N-((S)-1-(4-(4-methylthiazol-5-yl)phenyl)ethyl)pyrrolidine-2-carboxamide], the greatest degradation seen (Dmax) was greater than 75% and the DC50 was less than 2.5 nM.
For the compound `CC(C)[C@H](C(=O)N1C[C@H](O)C[C@H]1C(=O)NCc1ccc(C2(F)CC2)cc1)c1cc(OCCN2CCC(O[C@H]3C[C@H](Oc4cc(N5C6CCC5CN(c5cc(-c7ccccc7O)nnc5N)C6)ccn4)C3)CC2)no1` [compound 418, (2S,4R)-1-((2S)-2-(3-(2-(4-((1r,3S)-3-((4-(3-(3-amino-6-(2-hydroxyphenyl)pyridazin-4-yl)-3,8-diazabicyclo[3.2.1]octan-8-yl)pyridin-2-yl)oxy)cyclobutoxy)piperidin-1-yl)ethoxy)isoxazol-5-yl)-3-methylbutanoyl)-N-(4-(1-fluorocyclopropyl)benzyl)-4-hydroxypyrrolidine-2-carboxamide], the 50% degradation concentration (DC50) was greater than 30 nM.
As for `CC(C)[C@@H](C(=O)N1C[C@H](O)C[C@H]1C(=O)NCc1ccc(C2(F)CC2)cc1)c1cc(OCCN2CCC(O[C@H]3C[C@H](Oc4cc(N5C6CCC5CN(c5cc(-c7ccccc7O)nnc5N)C6)ccn4)C3)CC2)no1` [compound 419, (2S,4R)-1-((2R)-2-(3-(2-(4-((1r,3R)-3-((4-(3-(3-amino-6-(2-hydroxyphenyl)pyridazin-4-yl)-3,8-diazabicyclo[3.2.1]octan-8-yl)pyridin-2-yl)oxy)cyclobutoxy)piperidin-1-yl)ethoxy)isoxazol-5-yl)-3-methylbutanoyl)-N-(4-(1-fluorocyclopropyl)benzyl)-4-hydroxypyrrolidine-2-carboxamide], the Dmax was greater than 75% and the DC50 fell in the range of 2.5 to 10 nM.
Regarding `Cc1ncsc1-c1ccc([C@@H](NC(=O)[C@@H]2C[C@@H](O)CN2C(=O)[C@@H](c2cc(OCCN3CCC(O[C@H]4C[C@H](Oc5cc(N6C7CCC6CN(c6cc(-c8ccccc8O)nnc6N)C7)ccn5)C4)CC3)no2)C(C)C)C(=O)N(C)C2CCC2)cc1` [compound 420, (2S,4R)-1-((2R)-2-(3-(2-(4-((1r,3R)-3-((4-(3-(3-amino-6-(2-hydroxyphenyl)pyridazin-4-yl)-3,8-diazabicyclo[3.2.1]octan-8-yl)pyridin-2-yl)oxy)cyclobutoxy)piperidin-1-yl)ethoxy)isoxazol-5-yl)-3-methylbutanoyl)-N-((R)-2-(cyclobutyl(methyl)amino)-1-(4-(4-methylthiazol-5-yl)phenyl)-2-oxoethyl)-4-hydroxypyrrolidine-2-carboxamide], the greatest degradation seen (Dmax) is greater than 75% and the DC50 was less than 2.5 nM.
On to `Cc1ncsc1-c1ccc([C@H](C)NC(=O)[C@@H]2C[C@@H](O)CN2C(=O)[C@H](c2cc(OCC(F)(F)CN3CCC(O[C@H]4C[C@H](Oc5cc(N6C7CCC6CN(c6cc(-c8ccccc8O)nnc6N)C7)ccn5)C4)CC3)no2)C(C)C)cn1` [compound 421, (2S,4R)-1-((2S)-2-(3-(3-(4-((1r,3S)-3-((4-(3-(3-amino-6-(2-hydroxyphenyl)pyridazin-4-yl)-3,8-diazabicyclo[3.2.1]octan-8-yl)pyridin-2-yl)oxy)cyclobutoxy)piperidin-1-yl)-2,2-difluoropropoxy)isoxazol-5-yl)-3-methylbutanoyl)-4-hydroxy-N-((S)-1-(6-(4-methylthiazol-5-yl)pyridin-3-yl)ethyl)pyrrolidine-2-carboxamide], for which the half-maximal degradation concentration (DC50) is greater than 30 nM.
Take `Cc1ncsc1-c1ccc([C@H](C)NC(=O)[C@@H]2C[C@@H](O)CN2C(=O)[C@@H](c2cc(OCC(F)(F)CN3CCC(O[C@H]4C[C@H](Oc5cc(N6C7CCC6CN(c6cc(-c8ccccc8O)nnc6N)C7)ccn5)C4)CC3)no2)C(C)C)cn1` [compound 422, (2S,4R)-1-((2R)-2-(3-(3-(4-((1r,3R)-3-((4-(3-(3-amino-6-(2-hydroxyphenyl)pyridazin-4-yl)-3,8-diazabicyclo[3.2.1]octan-8-yl)pyridin-2-yl)oxy)cyclobutoxy)piperidin-1-yl)-2,2-difluoropropoxy)isoxazol-5-yl)-3-methylbutanoyl)-4-hydroxy-N-((S)-1-(6-(4-methylthiazol-5-yl)pyridin-3-yl)ethyl)pyrrolidine-2-carboxamide]: the Dmax is greater than 75% and the half-maximal degradation concentration (DC50) was less than 2.5 nM.
On to `Cc1ncsc1-c1ccc([C@@H](NC(=O)[C@@H]2C[C@@H](O)CN2C(=O)[C@H](c2cc(OCCN3CCC(O[C@H]4C[C@H](Oc5cc(N6C7CCC6CN(c6cc(-c8ccccc8O)nnc6N)C7)ccn5)C4)CC3)no2)C(C)C)C(=O)N(C)C2CCC2)cc1` [compound 423, (2S,4R)-1-((2S)-2-(3-(2-(4-((1r,3S)-3-((4-(3-(3-amino-6-(2-hydroxyphenyl)pyridazin-4-yl)-3,8-diazabicyclo[3.2.1]octan-8-yl)pyridin-2-yl)oxy)cyclobutoxy)piperidin-1-yl)ethoxy)isoxazol-5-yl)-3-methylbutanoyl)-N-((R)-2-(cyclobutyl(methyl)amino)-1-(4-(4-methylthiazol-5-yl)phenyl)-2-oxoethyl)-4-hydroxypyrrolidine-2-carboxamide], for which the 50% degradation concentration (DC50) is greater than 30 nM.
With `Cc1cc([C@@H](C(=O)N2C[C@H](O)C[C@H]2C(=O)N[C@@H](C)c2ccc(-c3scnc3C)cc2)[C@H](C)COCCCCN2C3CCC2CN(c2cc(-c4ccccc4O)nnc2N)C3)on1` [compound 424, (2S,4R)-1-((2S,3S)-4-(4-(3-(3-amino-6-(2-hydroxyphenyl)pyridazin-4-yl)-3,8-diazabicyclo[3.2.1]octan-8-yl)butoxy)-3-methyl-2-(3-methylisoxazol-5-yl)butanoyl)-4-hydroxy-N-((S)-1-(4-(4-methylthiazol-5-yl)phenyl)ethyl)pyrrolidine-2-carboxamide], the 50% degradation concentration (DC50) was greater than 30 nM.
With `Cc1cc([C@H](C(=O)N2C[C@H](O)C[C@H]2C(=O)N[C@@H](C)c2ccc(-c3scnc3C)cc2)[C@H](C)COCCCCN2C3CCC2CN(c2cc(-c4ccccc4O)nnc2N)C3)on1` [compound 425, (2S,4R)-1-((2R,3S)-4-(4-(3-(3-amino-6-(2-hydroxyphenyl)pyridazin-4-yl)-3,8-diazabicyclo[3.2.1]octan-8-yl)butoxy)-3-methyl-2-(3-methylisoxazol-5-yl)butanoyl)-4-hydroxy-N-((S)-1-(4-(4-methylthiazol-5-yl)phenyl)ethyl)pyrrolidine-2-carboxamide], the 50% degradation concentration (DC50) was greater than 30 nM.
